# Experimental data from the Kinase Knowledgebase extract (Sharma et al. 2016).
# Tested on: MAPK14 (sprague-dawley rat)
# Assay: IL-1 beta-induced P38 Phosphorylation
# Settings: astrocyte
row,IC50 [µM],SMILES
1,500,CC(=O)N[C@@H](CS)C(=O)O
2,500,CC(C)(C)/[N+]([O-])=C/c1ccccc1
